Assay: xn = mol fraction of the nth substance listed
Conditions: 101 kPa, Liquid; for viscosity: Capillary tube (Ostwald / Ubbelohde) method; for mass density: Vibrating tube method

CCCCCCCO [heptan-1-ol] + CC(C)CC(C)(C)C
Conditions | mass density [kg/m3] | viscosity [mPa·s]
298.15 K, x2 = 0 | 818.82 | 6.004
298.15 K, x2 = 0.1003 | 804.69 | 4.442
298.15 K, x2 = 0.2002 | 790.62 | 3.258
298.15 K, x2 = 0.3002 | 776.7 | 2.408
298.15 K, x2 = 0.3999 | 763.07 | 1.793
298.15 K, x2 = 0.5 | 749.79 | 1.349
298.15 K, x2 = 0.6 | 736.64 | 1.059
298.15 K, x2 = 0.6999 | 723.94 | 0.827
298.15 K, x2 = 0.7999 | 711.51 | 0.672
298.15 K, x2 = 0.8999 | 699.33 | 0.557
298.15 K, x2 = 0.92 | 697.03 | –
298.15 K, x2 = 0.94 | 694.61 | –
298.15 K, x2 = 0.9599 | 692.3 | –
303.15 K, x2 = 0 | 815.3 | 5.079
303.15 K, x2 = 0.1003 | 801.1 | 3.807
303.15 K, x2 = 0.2002 | 786.96 | 2.834
303.15 K, x2 = 0.3002 | 772.96 | 2.126
303.15 K, x2 = 0.3999 | 759.26 | 1.597
303.15 K, x2 = 0.5 | 745.92 | 1.224
303.15 K, x2 = 0.6 | 732.7 | 0.988
303.15 K, x2 = 0.6999 | 719.94 | 0.782
303.15 K, x2 = 0.7999 | 707.45 | 0.627
303.15 K, x2 = 0.8999 | 695.21 | 0.524
303.15 K, x2 = 0.92 | 692.88 | –
303.15 K, x2 = 0.94 | 690.48 | –
303.15 K, x2 = 0.9599 | 688.17 | –
308.15 K, x2 = 0 | 811.75 | 4.374
308.15 K, x2 = 0.1003 | 797.48 | 3.283
308.15 K, x2 = 0.2002 | 783.26 | 2.518
308.15 K, x2 = 0.3002 | 769.2 | 1.881
308.15 K, x2 = 0.3999 | 755.43 | 1.437
308.15 K, x2 = 0.5 | 742.02 | 1.13
308.15 K, x2 = 0.6 | 728.74 | 0.913
308.15 K, x2 = 0.6999 | 715.91 | 0.714
308.15 K, x2 = 0.7999 | 703.35 | 0.587
308.15 K, x2 = 0.8999 | 691.05 | 0.496
308.15 K, x2 = 0.92 | 688.71 | –
308.15 K, x2 = 0.94 | 686.3 | –
308.15 K, x2 = 0.9599 | 683.98 | –
313.15 K, x2 = 0 | 808.17 | 3.8
313.15 K, x2 = 0.1003 | 793.83 | 2.875
313.15 K, x2 = 0.2002 | 779.54 | 2.217
313.15 K, x2 = 0.3002 | 765.4 | 1.679
313.15 K, x2 = 0.3999 | 751.57 | 1.298
313.15 K, x2 = 0.5 | 738.08 | 1.018
313.15 K, x2 = 0.6 | 724.74 | 0.825
313.15 K, x2 = 0.6999 | 711.84 | 0.67
313.15 K, x2 = 0.7999 | 699.22 | 0.55
313.15 K, x2 = 0.8999 | 686.85 | 0.465
313.15 K, x2 = 0.92 | 684.51 | –
313.15 K, x2 = 0.94 | 682.09 | –
313.15 K, x2 = 0.9599 | 679.77 | –
318.15 K, x2 = 0 | 804.57 | 3.224
318.15 K, x2 = 0.1003 | 790.15 | 2.503
318.15 K, x2 = 0.2002 | 775.79 | 1.979
318.15 K, x2 = 0.3002 | 761.58 | 1.501
318.15 K, x2 = 0.3999 | 747.67 | 1.176
318.15 K, x2 = 0.5 | 734.12 | 0.934
318.15 K, x2 = 0.6 | 720.71 | 0.758
318.15 K, x2 = 0.6999 | 707.74 | 0.623
318.15 K, x2 = 0.7999 | 695.05 | 0.517
318.15 K, x2 = 0.8999 | 682.63 | 0.439
318.15 K, x2 = 0.92 | 680.27 | –
318.15 K, x2 = 0.94 | 677.84 | –
318.15 K, x2 = 0.9599 | 675.52 | –
323.15 K, x2 = 0 | 800.93 | 2.851
323.15 K, x2 = 0.1003 | 786.43 | 2.209
323.15 K, x2 = 0.2002 | 772 | 1.754
323.15 K, x2 = 0.3002 | 757.71 | 1.351
323.15 K, x2 = 0.3999 | 743.74 | 1.071
323.15 K, x2 = 0.5 | 730.12 | 0.859
323.15 K, x2 = 0.6 | 716.64 | 0.699
323.15 K, x2 = 0.6999 | 703.6 | 0.592
323.15 K, x2 = 0.7999 | 690.85 | 0.487
323.15 K, x2 = 0.8999 | 678.37 | 0.416
323.15 K, x2 = 0.92 | 675.99 | –
323.15 K, x2 = 0.94 | 673.57 | –
323.15 K, x2 = 0.9599 | 671.24 | –
